Data: patent publication US20150126546A1, “Treatment of Cognitive Disorders with Certain Alpha-7 Nicotinic Acid Receptors in Combination with Acetylcholinesterase Inhibitors” (Forum Pharmaceuticals, Inc., priority 2009, published 2015)
Where a name gives a salt, the structure may show the parent alone.

Legend:
Format in all cases: in vivo
[1] = tested on: mild to moderate AD patients; conditions: 0.3 or 1.0 mg/d for 28 days, in addition to donepezil or rivastigmine; domains of non-verbal learning, memory, executive function
Procedure: The safety and efficacy of (R)-7-chloro-N-(quinuclidin-3-yl)benzo[b]thiophene-2-carboxamide HCl salt was assessed in a Phase 1b study of 48 mild to moderate AD patients 60-80 years of age, on stable donepezil (5 or 10 mg/day) or rivastigmine (6-12 mg/day administered as a twice daily dose, i.e., 3 or 6 mg per dose).
Patients were dosed with placebo or two different doses of (R)-7-chloro-N-(quinuclidin-3-yl)benzo[b]thiophene-2-carboxamide (0.3 or 1.0 mg/d) for 28 days. Safety was evaluated by adverse events, ECG, and clinical laboratory measures. Cognitive effects were measured by CogState computerized cognitive testing and a subset of NTB scales (category fluency, Trails A and B).

[2] = tested on: 5-month-old male Wistar rats; assay: Object recognition task after scopolamine treatment; conditions: for d2 difference from zero (one-sample t-tests) / effect on scopolamine-induced object memory dysfunction (comparison with scopolamine alone): present study; for d2 difference from zero (one-sample t-tests) / effect on scopolamine-induced object memory dysfunction (comparison with scopolamine alone) / Mean values (±SEM) of the indices of discrimination (d2) between the new and familiar objects: EVP-6124 0.03 mg/kg p.o., donepezil 0.1 mg/kg p.o., scopolamine 0.1 mg/kg i.p., 1 h delay; for Mean values (±SEM) of the indices of discrimination (d2) between the new and familiar objects: all 30 min before T1, n = 23
Text: The object recognition task allows the assessment of consolidation of (object) information into memory (Ennaceur and Delacour, 1988; Prickaerts et al., 1997). In this task a rat is given two trials. In the first trial the rat is put into an arena in which two identical objects are placed. Usually, a rate will inspect the two objects for a certain amount of time. After a certain delay, the rat is given a second trial. In this trial the rat is again placed in the same arena but one of the objects has been replaced by a novel object. Similar to the first trial the rat again explores the two objects. The amount of time exploring each object is recorded in order to determine whether the rat spent a different amount of time exploring the two objects. On basis of this scoring the memory performance can be determined.
All drugs were given 30 minutes before the first trial.
All experimental procedures were approved by the local ethical committee of the Maastricht University for animal experiments and met governmental guidelines. Twenty-four 5-month-old male Wistar rats (Harlan, The Netherlands) were used (average body weights: 465 g). […] The animals were individually housed in standard type 3 Makrolon cages on sawdust bedding in an air-conditioned room (about 20° C.). They were kept under a 12/12-hour light/dark cycle (lights on from 19.00 to 7.00 h) and had free access to food and water. Rats were housed in the same room as where the animals were tested. A radio, which was playing softly, provided background noise in the room. All testing was done between 9.00 and maximally 18.00 h.
EVP-6124 was dissolved in H2O. The solution was prepared daily and tested at a dose of 0.03 mg/kg p.o. (injection volume 2 ml/kg). […] Donepezil was dissolved in saline. The solution was prepared daily and tested at a dose of 0.1 mg/kg p.o. (injection volume 2 ml/kg). Administration was always 30 min before trial 1 immediately after (R)-7-chloro-N-(quinuclidin-3-yl)benzo[b]thiophene-2-carboxamide.
Subsequently donepezil, (R)-7-chloro-N-(quinuclidin-3-yl)benzo[b]thiophene-2-carboxamide and the combination of both were tested (n=8 per condition per day of testing). All rats were treated once with each dose condition. […] The experimentator was unaware of the condition/drugs being tested.
The object recognition test was performed as described elsewhere (Ennaceur and Delacour, 1988). The apparatus consisted of a circular arena, 83 cm in diameter. Half of the 40 cm high wall was made of gray polyvinyl chloride, the other half of transparent polyvinyl chloride. The light intensity was equal in the different parts of the apparatus. Two objects were placed in a symmetrical position about 10 cm away from the gray wall. Each object was available in triplicate. The objects were: 1) a cone consisting of a gray polyvinyl chloride base (maximal diameter 18 cm) with a collar on top made of brass (total height 16 cm), 2) a standard 1 l brown transparent glass bottle (diameter 10 cm, height 22 cm) filled with water, 3) a massive metal cube (10.0×5.0×7.5 cm) with two holes (diameter 1.9 cm), and 4) a massive aluminum cube with a tapering top (13.0×8.0×8.0 cm). A rat could not displace the objects. Fluorescent red tubes and a light bulb provided a constant illumination of about 20 lux on the floor of the apparatus.
A testing session comprised two trials. The duration of each trial was 3 min. During the first trial (T1) the apparatus contained two identical objects (samples). A rat was always placed in the apparatus facing the wall at the middle of the front (transparent) segment. After the first exploration period the rat was put back in its home cage.

[3] = tested on: 5-month-old male Wistar rats; assay: as above; conditions: previous study; for effect on object memory deficit induced by scopolamine: scopolamine 0.1 mg/kg i.p.

SMILES: O=C(N[C@H]1CN2CCC1CC2)c1cc2cccc(Cl)c2s1 [EVP-6124, (R)-7-chloro-N-(quinuclidin-3-yl)benzo[b]thiophene-2-carboxamide]
- cognitive function [1]: showed an increase in cognitive function
- d2 difference from zero (one-sample t-tests) [2]: not different from zero
- effect on scopolamine-induced object memory dysfunction (comparison with scopolamine alone) [2]: did not improve the memory
- Mean values (±SEM) of the indices of discrimination (d2) between the new and familiar objects [2]: 0.00 (0.05)
- effect on object memory deficit induced by scopolamine ([3]; 0.03 mg/kg p.o.): had no effect
- effect on object memory deficit induced by scopolamine ([3]; 0.3 mg/kg p.o.): completely attenuated

SMILES: COc1cc2c(cc1OC)C(=O)C(CC1CCN(Cc3ccccc3)CC1)C2 (centres unmarked) [donepezil, 1-benyzl-4-[(5,6-dimethoxy-1-indanon)-2-yl]methylpiperidine monohydrochloride]
- d2 difference from zero (one-sample t-tests) [2]: not different from zero
- effect on scopolamine-induced object memory dysfunction (comparison with scopolamine alone) [2]: did not improve the memory
- Mean values (±SEM) of the indices of discrimination (d2) between the new and familiar objects [2]: −0.02 (0.05)
- effect on scopolamine-induced object memory deficit ([3]; 0.1 mg/kg donepezil): had no effect
- effect on scopolamine-induced object memory deficit ([3]; 0.3 mg/kg donepezil p.o.): attenuated

SMILES: CN1[C@@H]2C[C@@H](OC(=O)[C@H](CO)c3ccccc3)C[C@H]1[C@@H]1O[C@@H]12 [scopolamine]
- d2 difference from zero (one-sample t-tests) [2]: no difference
- memory of the familiar object after 1 h delay interval ([2]; scopolamine 0.1 mg/kg i.p. alone): no more memory of the familiar object was found
- Mean values (±SEM) of the indices of discrimination (d2) between the new and familiar objects [2]: 0.02 (0.07)
